These results are taken from US7553798B2, “Heterocyclic carboxamides with microbiocidal activity” (Syngenta Crop Protection, Inc., priority 2004, dated 2009).

`Cn1cc(C(=O)Nc2ccccc2-c2ccc(C#CC(C)(C)C)s2)c(C(F)(F)F)n1` [Compound 1ai.098, 1-methyl-3-trifluoromethyl-1H-pyrazole-4-carboxylic acid {2-[5-(3,3-dimethyl-but-1-ynyl)-thiophen-2-yl]-phenyl}-amide] yielded a melting point of 122 to 125 °C. Regarding `Cn1cc(C(=O)Nc2ccccc2-n2cc(C#CC(C)(C)C)cn2)c(C(F)F)n1` [Compound 1ar.099, 3-difluoromethyl-1-methyl-1H-pyrazole-4-carboxylic acid {2-[4-(3,3-dimethyl-but-1-ynyl)-pyrazol-1-yl]-phenyl}-amide], the melting point was in the range of 145 to 148 °C.
